The source of these data is patent US6506392B2, “Theraputic topical solution for skin and associated methods of use” (priority 2000, dated 2003).

For this experiment, the system named is skin exhibiting psoriasis. In words: topical application to skin exhibiting psoriasis (Example 1). The experiment is classed as in vivo, human. The conditions noted are these: one subject, treatments used before the solution. An excerpt: A further understanding of the present invention will be afforded by a consideration of the following non-limiting examples. In these examples, the “full strength” 100% solution was utilized. These examples are illustrative of the principals of the present invention and are not intended to limit the scope of the invention to the exemplary uses and formulations.
Three subjects, two male and one […], suffering from psoriasis, applied the solution to areas on their bodies and rubbed in the solution with their fingertips several times per day or as needed. Areas of application included knees and elbows.
It is important to note that some of the subjects had suffered from psoriasis for an extended period of time and had tried a variety of treatments. One subject had previously utilized various tars, cortisones, temovate and methotrexate treatments.

For the compound `CN(Cc1cnc2nc(N)nc(N)c2n1)c1ccc(C(=O)N[C@@H](CCC(=O)O)C(=O)O)cc1` [methotrexate], the “outcome of previous psoriasis treatments” value is “without success”. With `CCC(=O)O[C@]1(C(=O)CCl)[C@@H](C)C[C@H]2[C@@H]3CCC4=CC(=O)C=C[C@]4(C)[C@@]3(F)[C@@H](O)C[C@@]21C` [temovate] the entry was “without success”.
